Measurements from PubChem BioAssay (NCI).
Several values for one entry are separate records, joined by “and”; a condition that tells them apart may be missing. Equal values may be shown once.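 Method: 48-hour compound exposure of cells in 96-well plates, five concentrations, linear interpolation of endpoints. GI50 marks 50% less growth. TGI: total growth inhibition.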

Assays:
Assay in all cases: NCI anticancer screen, dose series, 48 h
SK-OV-3 ovarian = system: SK-OV-3 ovarian
UACC-62 melanoma = system: UACC-62 melanoma
KM12 colon = system: KM12 colon
HCT-15 colon = system: HCT-15 colon
SK-MEL-2 melanoma = system: SK-MEL-2 melanoma
CAKI-1 renal = system: CAKI-1 renal
MCF7 breast = system: MCF7 breast
SN12C renal = system: SN12C renal
MDA-MB-231 breast = system: MDA-MB-231 breast
HS 578T breast = system: HS 578T breast

Row | SMILES | TGI (SK-OV-3 ovarian) [µM] | TGI (UACC-62 melanoma) [µM] | TGI (KM12 colon) [µM] | TGI (HCT-15 colon) [µM] | TGI (SK-MEL-2 melanoma) [µM] | TGI (CAKI-1 renal) [µM] | GI50 (UACC-62 melanoma) [µM] | GI50 (MCF7 breast) [µM] | TGI (MCF7 breast) [µM] | GI50 (KM12 colon) [µM] | GI50 (HCT-15 colon) [µM] | TGI (SN12C renal) [µM] | GI50 (SK-MEL-2 melanoma) [µM] | GI50 (CAKI-1 renal) | GI50 (MDA-MB-231 breast) [µM] | TGI (MDA-MB-231 breast) [µM] | TGI (HS 578T breast) [µM] | GI50 (SK-OV-3 ovarian) [µM] | GI50 (SN12C renal) [µM] | GI50 (HS 578T breast) [µM]
1 | CCc1cc(Cc2ccc(C)c(NC(=O)C(=O)C3C(=O)NC(=O)NC3=O)c2CC)cc(C)c1NC(=O)C(=O)C1C(=O)NC(=O)NC1=O | > 100 | > 100 | > 100 | > 100 | > 100 | > 100 |  |  |  |  |  |  |  |  |  |  |  |  |  | 
2 | CC(/C=N/N=C(N)N)=N\N=C(N)N | 546 | 236 | 34.4 | 2500 | 149 | 1010 | > 55.3 | 19.4 | 1120 | 21.5 | > 51.4 | 941 | 28.9 | 51.7 µM and 15.7 µM | 7.67 | 965 | 169 |  |  | 
3 | O=C1C=Cc2ncccc2C1=O | > 61.7 | 31.1 | > 58.5 | 33.5 | 39.2 | 48.9 |  |  |  |  |  | 48.9 |  |  |  |  |  |  |  | 
4 | N#C/C(=C\c1ccc2[nH]ccc2c1)C(=O)c1ccc(O)c(O)c1 | > 100 | > 100 | > 100 | > 100 | > 100 | > 100 |  |  | > 100 |  |  | > 100 |  |  |  |  | > 100 |  |  | 
5 | [CH3][Sn]1([CH3])[O]CC(COc2cc(Cl)c(Cl)cc2Cl)[O]1 (stereo not given) | > 100 | > 100 | > 100 | > 100 | > 100 | 89.3 | 40.7 |  |  | 45.8 | > 100 | > 100 | 62 | 28.1 µM |  |  |  | 85.6 | 89.1 | 
6 | CC(C)(C)Sc1nnc(SC(C)(C)C)c2c(=O)[nH]nc(SC(C)(C)C)c12 | 32.5 | 22.2 | 25.6 | 16.4 |  | 16.3 |  |  |  |  |  | 21.9 |  |  |  |  |  |  |  | 
7 | Oc1ccc(Cl)cc1/C=N\NC(=S)N/N=C/c1cc(Cl)ccc1O |  | 7.57 | 44.7 | > 100 | 10.1 | 8.48 | 1.74 | 3.82 | > 100 | 2.68 | 0.997 | 64.7 | 1.87 | 1.24 µM | 1.84 | 27.6 | > 100 |  | 3.12 | 8.37
8 | Nc1ccn(C2OC(C(OC3OC(CO)C(O)C(N)C3O)C(O)C(O)C(O)C(O)CO)C(N)C(O)C2O)c(=O)n1 (stereo not given) |  | > 100 | > 100 | > 100 | > 100 | > 100 |  |  | > 100 |  |  | > 100 |  |  |  | 41.1 | 7.27 |  |  | 
9 | Cn1nc(-c2ccccc2)c(C(=O)/C=C/c2ccc(Cl)cc2)c(N2CCCC2)c1=O | 18.8 | 22.4 |  | > 100 |  | 22.2 |  |  |  |  |  | 54 |  |  |  |  |  |  |  | 
10 | CC1=CC(=O)NP(=O)(C23CC4CC(CC(C4)C2)C3)N1 (stereo not given) | > 100 | > 100 | > 100 | > 100 | > 100 | > 100 |  |  |  |  |  | > 100 |  |  |  |  |  |  |  | 
11 | S=c1c2ccccc2c(=S)n2n1CC=CC2 | > 100 | > 100 | > 100 | > 100 | > 100 | > 100 |  |  |  |  |  | > 100 |  |  |  |  |  |  |  | 
12 | c1ccc(-c2nnc3nn4c(-c5ccccc5)cnnc4c3c2-c2ccccc2)cc1 |  | > 100 | > 100 | > 100 | > 100 | 45.6 |  |  |  |  |  | > 100 |  |  |  |  |  |  |  | 
13 | CCCCNC1=C(C(=O)OCC)/C(=N/NC(=O)c2ccccc2O)CO1 | > 100 | > 100 | > 100 |  | > 100 | > 100 |  |  |  |  |  | > 100 |  |  |  |  |  |  |  | 
14 | Cc1ccc2nc(NC(=O)C(=O)CC(=O)c3cccc4ccccc34)sc2c1 | 36.6 | 86.8 | > 100 | > 100 | > 100 | 78 |  |  |  |  |  | > 100 |  |  |  |  |  |  |  | 
15 | Cc1cc(Nc2nc(-c3ccncc3)nc3ccccc23)n[nH]1 | > 100 |  | > 100 | > 100 | > 100 | > 100 |  | 8.18 | > 100 | 0.335 | 1.77 | > 100 | 34.3 | 0.58 µM | 14.7 | > 100 | 7.47 | 3.45 | 4.55 | 1.36
16 | O=C(/C=C/C1C(=O)NC(=O)NC1=O)CC(=O)C(=O)Nc1cc(Cl)c(Cl)cc1Cl | > 100 | > 100 | > 100 | > 100 | > 100 | > 100 |  |  |  |  |  | > 100 |  |  |  |  |  |  |  | 
17 | CCOC(=O)CC(NC(=O)c1ccc(N=NN(C)C)cc1)C(=O)OCC (stereo not given) | > 100 | > 100 | > 100 | > 100 | > 100 | > 100 |  |  |  |  |  | > 100 |  |  |  |  |  |  |  | 
18 | O=C(Nc1nc2ccccc2s1)c1cc(-c2ccc(F)cc2)n2nc(-c3ccccc3)cc2n1 | 5.56 | > 100 |  |  | 8.97 |  | 3.79 | 5.29 | > 100 |  |  | > 100 | 3.15 |  | 2.36 | 5.61 | 8.64 | 2.3 | 6.49 | 2.29
19 | CC(C)[Si](OCC1CC(C#N)OC(C)(C)O1)(C(C)C)C(C)C (stereo not given) | 73.4 | > 100 | 35.9 | 79 | 30.6 | 69.5 |  |  |  |  |  | > 100 |  |  |  |  |  |  |  | 
20 | CC(C)N1C(C)[C@@H](c2ccccc2)O[P@]1(=O)CC1=CCCCC1 (stereo not given in full) | > 100 | > 100 | > 100 | > 100 | > 100 |  |  |  |  |  |  | > 100 |  |  |  |  |  |  |  | 
21 | CN=C(N)N/N=C(\C)c1ccc2c(c1)Cc1ccccc1-2 | 5.1 | 2.86 | 3.47 | 3.86 | 3.81 | 8.82 | 1.5 |  |  | 1.72 | 1.83 | 5.38 | 1.87 | 2.5 µM | 1.78 | 4.31 |  | 1.61 | 1.92 | 3.17
